Test results as given in the Deep4Chem optical property database.

Assay: photoluminescence quantum yield (fraction); solvent given as SMILES

Compound Fc1nc(F)c(F)c(C#Cc2ccccc2C#Cc2c(F)c(F)nc(F)c2F)c1F has a photoluminescence quantum yield (in CC#N) of 0.63.

In the case of F[B-]1(F)Oc2ccccc2-c2c3c(c4c([n+]21)CCc1ccccc1-4)CCc1ccccc1-3, the photoluminescence quantum yield (in ClCCl) is reported as 0.11.

In the case of Cc1cc2cc(C)c3c4ccccc4[nH]c3c2s1, the photoluminescence quantum yield (in ClCCl) is reported as 0.047.

For c1ccc(CO[Si]23n4c5c6ccccc6c4/N=C4N=C(/N=c6/c7ccccc7c(n62)=c2c6ccccc6c(n23)=N5)c2ccccc2\4)cc1 (stereo not drawn), the photoluminescence quantum yield (in CN(C)C=O) was 0.24.

Compound CC(C)(C)OC(=O)NC(C(=O)OCc1ccc2c3cccc4cccc(c5cccc1c52)c43)c1c[nH]c2ccccc12 (stereo not drawn) has a photoluminescence quantum yield (in CCO) of 0.86.

In the case of Oc1ccccc1-c1nc2c3cccnc3c3ncccc3c2n1-c1ccccc1, the photoluminescence quantum yield (in Cc1ccccc1) is reported as 0.001.

COC(=O)c1ccc(/C=C2\C=C(c3ccccc3)OC2=O)cc1 showed a photoluminescence quantum yield (in C1COCCO1) of 0.007.

Compound CCN(CC)c1ccc2cc(/C=C/c3cccc[n+]3CCCS(=O)(=O)[O-])c(=O)oc2c1 has a photoluminescence quantum yield (in C1CCOC1) of 0.14, a photoluminescence quantum yield (in CC#N) of 0.11 and a photoluminescence quantum yield (in CC(C)=O) of 0.11. For the same compound, the photoluminescence quantum yield (in CS(C)=O) was 0.16, the photoluminescence quantum yield (in Cc1ccccc1) was 0.02 and the photoluminescence quantum yield (in O) was 0.03. For the same compound, the photoluminescence quantum yield (in OCC(O)CO) was 0.19.

O=C(O)C1=C(C(=O)O)C2=C[C@H]3c4ccccc4[C@]2([Se]1)c1ccccc13 gave a photoluminescence quantum yield (in ClCCl) of 0.38.

For CN(C)c1ccc(C#Cc2cc3ccccc3oc2=O)cc1, the photoluminescence quantum yield (in ClCCl) was 0.009.

Compound COC1=[N+]2C(=C(c3ccccc3)c3cc(SC#N)c(OC)n3[B-]2(F)F)C=C1SC#N has a photoluminescence quantum yield (in CC#N) of 0.1, a photoluminescence quantum yield (in CCCCCC) of 0.1 and a photoluminescence quantum yield (in CCOC(C)=O) of 0.11. The photoluminescence quantum yield (in CO) was 0.15 and the photoluminescence quantum yield (in ClCCl) was 0.17.

Nc1ccc2c(c1)C(=O)c1ccc(N)cc1C2=O gave a photoluminescence quantum yield (in CC#N) of 0.016, a photoluminescence quantum yield (in CC(C)O) of 0.008 and a photoluminescence quantum yield (in CCO) of 0.0007. The photoluminescence quantum yield (in CCOC(C)=O) was 0.028 and the photoluminescence quantum yield (in CO) was 0.0002.

COCCOCCOCCOc1cc(C=O)c(OCCOCCOCCOC)cc1C=O showed a photoluminescence quantum yield (in CC(C)(C)O) of 0.12, a photoluminescence quantum yield (in CC(C)CO) of 0.12 and a photoluminescence quantum yield (in CC(C)O) of 0.11. For the same compound, the photoluminescence quantum yield (in CCCCO) was 0.13, the photoluminescence quantum yield (in CCCO) was 0.16 and the photoluminescence quantum yield (in CCO) was 0.19. It also gave a photoluminescence quantum yield (in CN(C)C=O) of 0.04, a photoluminescence quantum yield (in CNC=O) of 0.08 and a photoluminescence quantum yield (in CO) of 0.23. It also gave a photoluminescence quantum yield (in NC=O) of 0.31 and a photoluminescence quantum yield (in O) of 0.54.

Work on Cc1cc(/N=C/c2cc(S(=O)(=O)[O][Na])ccc2O)c(/N=C/c2cc(S(=O)(=O)[O][Na])ccc2O)cc1C yielded a photoluminescence quantum yield (in O) of 0.56.

Compound COC(=O)CCC1=CC(C#Cc2ccsc2)=[N+]2C1=Cc1c(CCC(=O)OC)cc(C#Cc3ccsc3)n1[B-]2(F)F has a photoluminescence quantum yield (in ClCCl) of 0.39.

With CCN(CC)c1ccc2cc(/C=C/C3=C4CC/C(=C\c5cc6ccc(N(CC)CC)cc6oc5=O)C4=[O+][B-](F)(F)O3)c(=O)oc2c1 the photoluminescence quantum yield (in C1COCCO1) was 0.3, the photoluminescence quantum yield (in CC(C)=O) was 0.18 and the photoluminescence quantum yield (in CCOC(C)=O) was 0.2. The photoluminescence quantum yield (in CS(C)=O) was 0.0068, the photoluminescence quantum yield (in Cc1ccccc1) was 0.4 and the photoluminescence quantum yield (in ClC(Cl)Cl) was 0.22.

With CCCC1(CCC)c2ccccc2-c2ccccc21 the photoluminescence quantum yield (in C1CCCCC1) was 0.36.

With CCCCCCN1C(=O)c2cccc3c(-c4ccc(-c5cc(-c6ccccc6)n(-c6ccccc6)n5)s4)ccc(c23)C1=O the photoluminescence quantum yield (in ClCCl) was 0.35.

[NH3+]C1(c2ccc3cc(O)ccc3c2)C2CC3CC(C2)CC1C3 (stereo not drawn) gave a photoluminescence quantum yield (in CC#N) of 0.3.
